Data: patent US20240041889A1, “COMBINATION THERAPY WITH ADENOSINE RECEPTOR ANTAGONISTS” (Teon Therapeutics, Inc., priority 2020, published 2024)

What was measured:
CT26 tumor = assay: Combination with anti-PD-1 in a CT26 model; assay type: in vivo, Balb/C mice; settings: intraperitoneally for 16 days
Protocol: Methods: Balb/C inbred female mice, aged at 8-9 week, were purchased from Charles River. On the day of inoculation (Day 0), CT26 cells were harvested, washed and counted. Cells were re-suspended as single cell solution in PBS at a concentration of 5×10^6 cells/mL at the final step. Immediately, five hundred thousand (5×10^5) of CT26 cells suspended in 0.1 mL PBS were injected in the right flank of Balb/C mice subcutaneously using 27G needles. When palpable, tumors were measured by a caliper and tumor volume (mm^3) were calculated by length×width×height×0.5236. Mice with the tumor size approximate to 100 mm^3 were randomly assigned into one of four groups (n=10). Each group received vehicle (BID), A2B antagonist Compound 1 at 3 mg/kg (BID), mouse anti-PD-1 (RMP1-14) at 5 mg/kg (Q2D), or Compound 1 (3 mg/kg)+RMP1-14 (5 mg/kg) intraperitoneally for 16 days. Tumor size and body weight were determined every 2-3 days.

B16F10 tumor = assay: Combination with anti-PD-1 in a B16F10 model; assay type: in vivo, C57BL/6 mice; settings: intraperitoneally for 7 days
Protocol: Methods: C57BL/6 inbred female mice, aged at 8-9 week, were purchased from Charles River. On the day of inoculation (Day 0), B16F10 cells were harvested, washed and counted. Cells were re-suspended as single cell solution in PBS at a concentration of 5×10^6 cells/mL at the final step. Immediately, five hundred thousand (5×10^5) of B16F10 cells suspended in 0.1 mL PBS were injected in the right flank of C57BL/6 mice subcutaneously using 27G needles. When palpable, tumors were measured by a caliper and tumor volumes (mm^3) were calculated by length×width×height×0.5236. Mice with the tumor size approximate to 100 mm^3 were randomly assigned into one of four groups (n=10). Each group received vehicle (BID), A2B antagonist Compound 1 at 1 mg/kg (BID), mouse anti-PD-1 (RMP1-14) at 10 mg/kg (Q3D), or Compound 1 (1 mg/kg)+RMP1-14 (10 mg/kg) intraperitoneally for 7 days. Tumor size and body weight were determined every 2-3 days.

[1] = test system: tumor-infiltrating immune cells; assay: Mechanistic study in a MC38 model, FACS analysis of tumor tissue; assay type: in vivo, C57BL/6 mice; settings: 6 days after drug treatment
Protocol: Methods: C57BL/6 inbred female mice, aged at 6-8 week, were purchased from Shanghai Lingchang Biotechnology Co., Ltd. On the day of inoculation (Day 0), MC38 cells were harvested, washed and counted. Cells were re-suspended as single cell solution in PBS at a concentration of 1×10^6 cells/mL at the final step. Immediately, […] (1×10^5) of MC38 cells suspended in 0.1 mL PBS were injected in the right flank of C57BL/6 mice subcutaneously using 27G needles. When palpable, tumors were measured by a caliper and tumor volume (mm^3) were calculated by length×width×height×0.5236. Mice with the tumor size approximately to 80-100 mm^3 were randomly assigned into one of four groups (n=8). Each group received vehicle (BID), A2B antagonist Compound 1 at 3 mg/kg (BID), mouse anti-PD-1 (RMP1-14) at 10 mg/kg (Q3D), or Compound 1 (3 mg/kg)+RMP1-14 (10 mg/kg) intraperitoneally. Tumor tissues were collected 6 days after drug treatment and made single cell suspension for FACS analysis to detect tumor-infiltrating immune cells.

MC38 tumor model = assay: Fibrosis in a MC38 tumor model; assay type: in vivo

## CCCn1c(=O)c2[nH]c(-c3cnn(Cc4cccc(C(F)(F)F)c4)c3)nc2n(CC)c1=O [Compound 1, 8-(1-(3-(Trifluoromethyl)benzyl)-1H-pyrazol-4-yl)-3-ethyl-1-propyl-1H-purine-2,6(3H,7H)-dione]
CT26 tumor; CT26 model
  effect on mouse body weight: no significant effect
CT26 tumor; Compound 1 3 mg/kg BID, RMP1-14 5 mg/kg Q2D, alone or combined
  maximal CT26 tumor growth inhibition (TGI): 47.5%
B16F10 tumor; B16F10 model
  effect on mouse body weight: no effect
B16F10 tumor; Compound 1 1 mg/kg BID, RMP1-14 10 mg/kg Q3D, alone or combined
  maximal B16F10 tumor growth inhibition (TGI): 48.7%
[1]; Compound 1 3 mg/kg BID i.p.
  increase of the amount of dendritic cells (DCs): 34%
  reduction of the amount of myeloid-derived suppressor cells (MDSCs): 41%
  reduction of the amount of regulatory T cells (Tregs): 28%
[1]; Compound 1 3 mg/kg BID, RMP1-14 10 mg/kg Q3D, alone or combined, i.p.
  increase of the amount of CD8+ T cells: 58%
[1]; Compound 1 3 mg/kg BID, RMP1-14 10 mg/kg Q3D, i.p.
  increase of the amount of CD4+ T cells: 84%
MC38 tumor model
  fibrosis: reduces fibrosis
